# Laboratory results from US20170000133A1, “BENZOXABOROLE FUNGICIDES” (SYNGENTA PARTICIPATIONS AG, priority 2013, published 2017).
# Key:
# [1] = tested on: Monographella nivalis (Microdochium nivale); assay: Monographella nivalis (Microdochium nivale) / liquid culture (foot rot cereals); format: cell-based; conditions: PDB potato dextrose broth, 24° C., 4-5 days after application, read-out: disease control (inhibition of growth determined photometrically)
# [2] = tested on: Thanatephorus cucumeris (Rhizoctonia solani); assay: Thanatephorus cucumeris (Rhizoctonia solani) / liquid culture (foot rot, damping-off); format: cell-based; conditions: PDB potato dextrose broth, 24° C., 3-4 days after application, read-out: disease control (inhibition of growth determined photometrically)
# Method in brief: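 Photometric growth-inhibition readout taken 3-4 days after application, with cultures incubated at 24 °C. Test compound was applied at 200 ppm from DMSO solution to R. solani mycelial fragments in PDB.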
# [3] = tested on: Mycosphaerella arachidis (Cercospora arachidicola); assay: Mycosphaerella arachidis (Cercospora arachidicola) / liquid culture (early leaf spot); format: cell-based; conditions: PDB potato dextrose broth, 24° C., 4-5 days after application, read-out: disease control (inhibition of growth determined photometrically)
# Method in brief: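 Test compound, applied at 200 ppm from DMSO solution, was combined with spore-containing potato dextrose broth. Photometric growth inhibition was scored after 4-5 days at 24° C.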
# Gaeumannomyces graminis = Gaeumannomyces graminis / liquid culture (take-all of cereals); format: cell-based; conditions: PDB potato dextrose broth, 24° C., 4-5 days after application, read-out: disease control (inhibition of growth determined photometrically)
# Method in brief: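 Growth inhibition measured photometrically 4–5 days post-application, following incubation at 24 °C. Test compound, applied from DMSO at 200 ppm, mixed with fungal mycelial fragments in potato dextrose broth.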
# [4] = tested on: Mycosphaerella graminicola (Septoria tritici); assay: Mycosphaerella graminicola (Septoria tritici) / liquid culture (Septoria blotch); format: cell-based; conditions: Zymoseptoria tritici, PDB potato dextrose broth, 24° C., 4-5 days after application, read-out: disease control (inhibition of growth determined photometrically)
# Method in brief: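 Growth inhibition was read photometrically 4-5 days after application, following incubation at 24° C of fungal conidia in potato dextrose broth over test compound (200 ppm, from DMSO solution) in microtiter plates.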
# Pythium ultimum = Pythium ultimum / liquid culture (seedling damping off); format: cell-based; conditions: Globisporangium ultimum; 200 ppm; potato dextrose broth, 24° C., 2-3 days after application; read-out: disease control (inhibition of growth determined photometrically)
# Phytophthora infestans = assay: whole plant or invertebrate; format: in vivo; conditions: in Solanum lycopersicum, foliar, read-out: disease control
# Plasmopara viticola = assay: whole plant or invertebrate; format: in vivo; conditions: foliar, read-out: disease control
# [5] = tested on: Glomerella lagenarium (Colletotrichum lagenarium); assay: Glomerella lagenarium (Colletotrichum lagenarium) / liquid culture (anthracnose); format: cell-based; conditions: Colletotrichum orbiculare, PDB potato dextrose broth, 24° C., 3-4 days after application, read-out: disease control (inhibition of growth measured photometrically)
# Method in brief: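 Compound was applied at 200 ppm from DMSO solution, then potato dextrose broth carrying cryostored fungal spores was added. Growth inhibition was measured by photometry after 3-4 days of incubation at 24° C.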
# Fusarium culmorum = assay: microbe, parasite or virus in culture; format: cell-based; conditions: read-out: disease control (inhibition of growth determined visually)
Structure (SMILES),inhibition at 200 ppm [1] [%],inhibition at 200 ppm [2] [%],inhibition at 200 ppm [3] [%],melting point [°C],inhibition at 200 ppm (Gaeumannomyces graminis) [%],inhibition at 200 ppm [4] [%],inhibition at 200 ppm (Pythium ultimum) [%],pest or weed control at 200 ppm (Phytophthora infestans) [%],pest or weed control at 200 ppm (Plasmopara viticola) [%],inhibition at 200 ppm [5] [%],inhibition at 200 ppm (Fusarium culmorum) [%]
O=C(OCCOc1ccc(Cl)cc1)c1ccc2c(c1)B(O)OC2 [Compound 352],≥ 80,≥ 80,≥ 80,122 to 124,≥ 80,≥ 80,≥ 80,,,,
CCOC(=O)C1CC=CCC1NC(=O)c1cc2c(cc1F)COB2O (stereo not drawn) [Compound 78],,,,,≥ 80,,≥ 80,≥ 80,,,
O=C(NCc1ccccc1OC(F)(F)F)c1cc2c(cc1F)COB2O [Compound 128],,,,,,,≥ 80,≥ 80,,,
COC(=O)c1cc2cc(NC(=O)c3cc4c(cc3F)COB4O)ccc2s1 [Compound 163],,,,,,,≥ 80,≥ 80,,,
COc1ccc(-c2ccccc2)cc1NC(=O)c1cc2c(cc1Cl)COB2O [Compound 129],≥ 80,,,,≥ 80,≥ 80,≥ 80,≥ 80,,,
C#CC1(NC(=O)c2cc3c(cc2F)COB3O)CCCCC1 [Compound 90],≥ 80,,,,,,≥ 80,≥ 80,,,
O=C(NCc1cccc(Cl)c1)c1cc2c(cc1F)COB2O [Compound 119],,,,,,,≥ 80,≥ 80,≥ 80,,
COC(=O)C(C)OC(=O)c1cc2c(cc1Cl)COB2O (stereo not drawn) [Compound 206],,≥ 80,,,,,≥ 80,≥ 80,,,
O=C(OCc1ccc(C(F)(F)F)nc1)c1cc2c(cc1Cl)COB2O [Compound 217],≥ 80,,,,≥ 80,,≥ 80,≥ 80,,≥ 80,
O=C(NCc1ccc(Cl)nc1)c1cc2c(cc1F)COB2O [Compound 138],,,,,,,≥ 80,≥ 80,,,
O=C(NCc1ccc2c(c1)OCCO2)c1cc2c(cc1F)COB2O [Compound 121],,,,,,,≥ 80,≥ 80,≥ 80,,
C[Si](C)(C)COC(=O)c1cc2c(cc1F)COB2O [Compound 429],≥ 80,≥ 80,,122 to 124,≥ 80,≥ 80,≥ 80,,≥ 80,≥ 80,≥ 80
O=C(OCC(F)F)c1cc2c(cc1Cl)COB2O [Compound 236],≥ 80,,,,≥ 80,≥ 80,≥ 80,≥ 80,,≥ 80,
O=C(NCCSCc1ccccc1)c1cc2c(cc1Cl)COB2O [Compound 59],,,,,,,≥ 80,≥ 80,,,
O=C(NCC1CCCO1)c1cc2c(cc1F)COB2O (stereo not drawn) [Compound 94],,,,,,,≥ 80,≥ 80,,,
O=C(Oc1ccccn1)c1cc2c(cc1F)COB2O [Compound 442],≥ 80,≥ 80,,213 to 215,,,≥ 80,,,,

Structure (SMILES),inhibition at 200 ppm [1] [%],inhibition at 200 ppm [2] [%],inhibition at 200 ppm [3] [%],melting point [°C],inhibition at 200 ppm (Gaeumannomyces graminis) [%],inhibition at 200 ppm [4] [%],inhibition at 200 ppm (Pythium ultimum) [%],pest or weed control at 200 ppm (Phytophthora infestans) [%],pest or weed control at 200 ppm (Plasmopara viticola) [%],inhibition at 200 ppm [5] [%],inhibition at 200 ppm (Fusarium culmorum) [%]
O=C(Nc1cc(-c2ccccc2)[nH]n1)c1cc2c(cc1F)COB2O [Compound 182],,,,,,,≥ 80,≥ 80,≥ 80,,
O=C(NCc1ccc(Oc2ccccc2)cc1)c1cc2c(cc1F)COB2O [Compound 136],≥ 80,,≥ 80,178 to 180,,≥ 80,≥ 80,,,≥ 80,
CC(=O)C(C)OC(=O)c1cc2c(cc1Cl)COB2O (stereo not drawn) [Compound 451],≥ 80,,≥ 80,102 to 104,≥ 80,≥ 80,≥ 80,,≥ 80,,
CC(C)c1ccc(NC(=O)c2cc3c(cc2F)COB3O)cc1 [Compound 146],≥ 80,,,184 to 186,,≥ 80,≥ 80,,,≥ 80,≥ 80
CC(=O)COC(=O)c1cc2c(cc1Cl)COB2O [Compound 450],,,,134 to 136,≥ 80,,≥ 80,,≥ 80,,
O=C(NCc1ccc2c(c1)OCCO2)c1cc2c(cc1Cl)COB2O [Compound 87],,,,,,,≥ 80,≥ 80,,,
COc1ccc(CNC(=O)c2cc3c(cc2F)COB3O)cc1 [Compound 124],,,,,,,≥ 80,≥ 80,≥ 80,,
CC(=O)C(C)OC(=O)c1ccc2c(c1)B(O)OC2 (stereo not drawn) [Compound 447],≥ 80,,,110 to 112,≥ 80,,≥ 80,,,,
O=C(NCCSCc1ccccc1)c1cc2c(cc1F)COB2O [Compound 84],,,,,,,≥ 80,≥ 80,≥ 80,,
O=C(NCc1ccco1)c1cc2c(cc1F)COB2O [Compound 144],≥ 80,,≥ 80,158 to 160,≥ 80,≥ 80,≥ 80,,≥ 80,≥ 80,
CC(C#N)OC(=O)c1cc2c(cc1Cl)COB2O (stereo not drawn) [Compound 193],,,,,,,≥ 80,≥ 80,,,
N#CCCOC(=O)c1cc2c(cc1Cl)COB2O [Compound 231],,,,,,,≥ 80,≥ 80,,,
O=C(NCc1ccccc1C(F)(F)F)c1cc2c(cc1F)COB2O [Compound 132],≥ 80,,,,≥ 80,,≥ 80,≥ 80,≥ 80,≥ 80,
CC(=O)c1sc(NC(=O)c2cc3c(cc2F)COB3O)nc1C [Compound 181],≥ 80,,,,,,≥ 80,≥ 80,,,
O=C(OCCO)c1ccc2c(c1)B(O)OC2 [Compound 244],≥ 80,,,122 to 124,,,≥ 80,,,,
